From patent US11179371B2, “Triazole benzamide derivatives as GPR142 agonists” (Boehringer Ingelheim International GmbH, priority 2018, dated 2021) come the findings set out here.

A word on the EC50: it is the concentration needed to bring the measured effect to its halfway point. Read a low EC50 as an effect from little substance.

A value given as a limit tells only on which side of the number the result lay.

The target in the assay is T1, human GPR142 receptor (Homo sapiens, UniProt Q7Z601).
T1 construct: Gene ID: 350383) was cloned; expressed in transfected cells
T1 sequence (Q7Z601 1-462): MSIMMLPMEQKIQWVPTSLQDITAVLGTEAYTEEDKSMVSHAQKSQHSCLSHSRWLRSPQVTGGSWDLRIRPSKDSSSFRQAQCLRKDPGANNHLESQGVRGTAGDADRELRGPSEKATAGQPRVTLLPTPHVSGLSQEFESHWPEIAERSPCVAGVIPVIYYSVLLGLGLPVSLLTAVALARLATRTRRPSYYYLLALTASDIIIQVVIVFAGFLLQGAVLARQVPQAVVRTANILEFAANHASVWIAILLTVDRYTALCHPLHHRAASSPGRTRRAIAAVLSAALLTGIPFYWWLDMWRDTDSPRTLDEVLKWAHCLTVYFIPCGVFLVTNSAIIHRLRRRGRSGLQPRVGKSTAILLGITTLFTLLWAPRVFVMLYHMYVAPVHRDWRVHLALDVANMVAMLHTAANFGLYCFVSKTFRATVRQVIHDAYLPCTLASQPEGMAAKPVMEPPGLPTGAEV
Nature of the assay: IP1 accumulation HTRF assay for GPR142 agonist activity in HEK293 FLPinTREX cells. The class given is cell-based. The conditions noted are these: HEK293 FLPinTREX cells stably expressing human GPR142, IP1 generation (IP-One HTRF), 60 minutes at 37° C. The protocol: This assay allows monitoring activity of compounds acting on Gq-coupled receptors. The principle of the assay is based on the competition between IP1 generated in the cells with d2-labeled IP1 for binding to a monoclonal anti-IP1 […] cryptate that allows for measuring quantitative changes using the Homogeneous Time Resolved Fluorescence. LiCl is added to the cell stimulation buffer, causing IP1 to accumulate upon receptor activation.
The open reading frame encoding the human GPR142 receptor (primary accession number: NM_181790; Gene ID: 350383) was cloned into the pcDNA5/FRT/TO vector for stable, and inducible expression using the Flp-In™ T-REx™ technology in HEK293 FLPinTREX cells. For stable expression, HEK293 FLPinTREX cells were co-transfected with the vector encoding human GPR142 and the pOG44 plasmid that constitutively expresses the Flp recombinase for stable integration of the human GPR142 into the genome of the Flp-In™ T-REx™ host cell line. Stably expressing clones were obtained by hygromycin (100 μg/ml) selection. To test for GPR142 agonist activity the human GPR142 receptor cell clone was thawed at 37° C. and immediately diluted with cell culture medium (Hams F12 medium; 10% FBS, 15 μg/ml Blasticidin, 100 μg/ml Hygromycin B). After centrifugation, the cell pellet was resuspended in medium, and distributed into the assay well plates (10000 cells/well; 20 μl/well). Receptor expression was induced by adding 0.1 μg/ml Doxycyclin to the culture medium. The plates were incubated for one hour at room temperature, followed by a 24 hours incubation at 37° C./5% CO2. After washing the cells in the plate twice with 60 μl assay buffer (10 mM HEPES, 1 mM CaCl2, 0.5 mM MgCl2, 4.2 mM KCl, 146 mM NaCl, 5.5 mM Glucose, 50 mM LiCl and 0.1% BSA, pH 7.4; 20 μl buffer remained in the wells after washing), 10 μl per well of test compound diluted in assay buffer was added to the wells. The assay plate was incubated for 60 minutes at 37° C. Then 5 μl per well of Anti-IP1-Cryptate Tb solution (prepared by 1:33 dilution of stock with Lysis buffer from IP-One Kit) and 5 μl per well of IP1-d2 (Prepared by 1:33 dilution of stock with Lysis buffer from IP-One Kit) dilution were added, followed by another 60 minutes incubation (light protected, room temperature). The emissions at 615 nm and 665 nm (excitation wavelength: 320 nm) were measured on the EnVision™ reader (PerkinElmer). The ratio between the emission at 665 nm and 615 was calculated by the reader.
Each assay microtiter plate contained 8 wells in with vehicle controls instead of compound (100% CTL; low values, negative control) and 8 wells with a reference GPR142 agonist (200% CTL; high values; positive control). An IP1 standard curve was prepared according to the manufacturer.
The ratio between the emission at 665 nm and the emission at 615 nm (Em665/Em615 ratio) was calculated and the signals for the test items were normalized using the positive and negative controls by the following formula: 100−(100×[(ratio(sample)−ratio(low))/(ratio(high)−ratio(low))].
For `Cc1ccc(C(=O)Nc2cccc(C(F)(F)F)c2)cc1-n1cc(-c2cncn2C)nn1` [Example 1], the EC50 is 0.4 nM.
On to `Cn1cncc1-c1cn(-c2cccc(C(=O)Nc3cccc(C(F)(F)F)c3)c2)nn1` [Example 2, 3-[4-(1-Methyl-1H-imidazol-5-yl)-1H-1,2,3-triazol-1-yl]-N-[3-(trifluoromethyl)-phenyl]benzamide], for which a half-maximal response (EC50) required 0.05 nM.
Take `Cn1cncc1-c1cn(-c2cccc(C(=O)Nc3cccc(Cl)c3)c2)nn1` [Example 3]: the EC50 was 0.21 nM.
The figure for `Cn1cncc1-c1cn(-c2cccc(C(=O)Nc3cccc(OC(F)(F)F)c3)c2)nn1` [Example 4] is 0.47 nM; for `Cc1ccc(C(=O)Nc2cccc(Cl)c2)cc1-n1cc(-c2cncn2C)nn1` [Example 5] it is 0.37 nM; for `Cc1ccc(C(=O)Nc2cccc(OC(F)(F)F)c2)cc1-n1cc(-c2cncn2C)nn1` [Example 6] it is 0.21 nM.
In the case of `Cc1cccc(NC(=O)c2cccc(-n3cc(-c4cncn4C)nn3)c2)c1` [Example 7], the EC50 worked out at 0.37 nM.
With `Cc1ncn(C)c1-c1cn(-c2cccc(C(=O)Nc3cccc(C(F)(F)F)c3)c2)nn1` [Example 8, 3-[4-(1,4-Dimethyl-1H-imidazol-5-yl)-1H-1,2,3-triazol-1-yl]-N-[3-(trifluoromethyl)-phenyl]benzamide], the EC50 was found to be 0.63 nM.
With `Cn1cncc1-c1cn(-c2cccc(C(=O)Nc3cccc(C(F)(F)F)c3F)c2)nn1` [Example 9] the figure was 0.45 nM.
`Cn1cncc1-c1cn(-c2cccc(C(=O)Nc3cc(F)cc(C(F)(F)F)c3)c2)nn1` [Example 10] returned an EC50 below 0.38 nM.
Take `Cn1cncc1-c1cn(-c2cccc(C(=O)Nc3cccc(C#N)c3)c2)nn1` [Example 11]: a half-maximal response (EC50) required 0.74 nM.
The compound `COC(=O)c1cccc(NC(=O)c2cccc(-n3cc(-c4cncn4C)nn3)c2)c1` [Example 12] showed an EC50 of 0.73 nM.
`CN(C)c1cccc(NC(=O)c2cccc(-n3cc(-c4cncn4C)nn3)c2)c1` [Example 13]: a half-maximal response (EC50) required 0.85 nM.
The figure for `COc1cccc(NC(=O)c2cccc(-n3cc(-c4cncn4C)nn3)c2)c1` [Example 14] is 0.86 nM; for `Cn1cncc1-c1cn(-c2cccc(C(=O)Nc3cccc([N+](=O)[O-])c3)c2)nn1` [Example 15] it is below 0.38 nM; for `Cc1cc(Br)cc(NC(=O)c2cccc(-n3cc(-c4cncn4C)nn3)c2)c1` [Example 16] it is below 0.38 nM.
`Cc1ncn(C)c1-c1cn(-c2cccc(C(=O)Nc3cccc(Cl)c3)c2)nn1` [Example 17] displayed an EC50 of 0.95 nM.
With `Cc1ncn(C)c1-c1cn(-c2cccc(C(=O)Nc3cccc(OC(F)(F)F)c3)c2)nn1` [Example 18] the figure was 0.64 nM.
For `Cn1cncc1-c1cn(-c2cccc(C(=O)Nc3cccc(OC(F)F)c3)c2)nn1` [Example 19], the concentration giving a half-maximal response (EC50) is below 0.38 nM.
`Cn1cncc1-c1cn(-c2cccc(C(=O)Nc3cccc(OC(F)(F)C(F)F)c3)c2)nn1` [Example 20] had an EC50 of 0.64 nM.
